Measured values reported in a melting point compilation (Tetko et al.).

SMILES | melting point
Cc1ccc(-n2cccc2)cc1 | 82 to 84 °C
Nc1ccc(CC2NC(=O)NC2=O)cc1 (stereo not drawn) | 152 to 154 °C
Cc1cc(C)n(-c2ccc(C(N)=NO)cn2)n1 | 139 to 141 °C
CCOc1c(C#N)cnc2ccccc12 | 98 to 100 °C
N#Cc1c(N2CCOCC2)n[nH]c1N | 195 to 197 °C
Cc1csc(=O)[nH]1 | 98 to 100 °C
CC(=O)NCc1ccc(S(N)(=O)=O)s1 | 121 to 123 °C
Cn1cc(C(=O)O)c(C(C)(C)C)n1 | 140 to 142 °C
COCCOC(=O)c1c(C)[nH]c(C(=O)O)c1C | 177 to 179 °C
NC(=O)c1cc(-c2cccs2)on1 | 190 to 192 °C
N#CCc1c(C#N)c(N)nc(N2CCCCC2)c1C#N | 142 to 144 °C
Cc1c[nH]c(=O)n1-c1ccccc1Cl | 199 to 201 °C
COc1ccc(N)c(C(=O)NC2CC2)c1 | 137 to 139 °C
O=C(O)Cc1ccc(-n2cccc2)cc1 | 171 to 173 °C
CSCc1nc2ccccc2n1CC(=O)O | 221 to 225 °C
Brc1ccn2nccc2n1 | 131 to 133 °C
COc1ccc2oc(C=O)cc2c1 | 59 to 61 °C
Cc1cc(CS(=O)(=O)Cl)no1 | 43 to 45 °C
Cc1cc(OC(C)C(=O)O)ccc1Cl (stereo not drawn) | 87 to 89 °C
Cc1nc(C(C)(C)O)n[nH]1 | 185 to 187 °C
CSc1ccncc1N | 78 to 80 °C
NCCCc1c[nH]c2ccccc12 | 62 to 64 °C

SMILES | melting point
NS(=O)(=O)C1CCS(=O)(=O)C1 (stereo not drawn) | 144 to 146 °C
O=C(CCl)N1CCNC1=O | 195 to 197 °C
COc1ccc(-c2cnc(CCC(=O)O)o2)cc1 | 158 to 160 °C
O=C(O)c1cc2c(s1)-c1ccccc1OC2 | 236 to 238 °C
CCCn1cnc2c1c(=O)[nH]c(=O)n2C | 256 to 258 °C
CC(=O)Nc1ccc2c(c1)CN(C(=O)OC(C)(C)C)CC2 | 110 to 112 °C
CC(=O)NCc1cccc(C(=O)O)c1 | 166 to 168 °C
COc1cc(Cl)c(C(=O)CBr)cc1OC | 93 to 95 °C
N#CCCCOc1cccnc1N | 88 to 90 °C
O=C(O)CCNC(=O)c1ccc2ccccc2c1 | 179 to 181 °C
O=C(O)Cc1c[nH]c2cc(Cl)ccc12 | 185 to 187 °C
Cn1c(Cl)cnc1CC#N | 142 to 144 °C
O=C(O)c1cc(S(=O)(=O)N2CCCC2)c[nH]1 | 175 to 177 °C
Cc1ccsc1C1CC1C(=O)O (stereo not drawn) | 58 to 60 °C
Nc1cc(C2CCNCC2)n[nH]1 | 151 to 153 °C
CN(C)c1cccc(Oc2ccc(C(N)=S)cc2)c1 | 182 to 184 °C
COCCc1noc(-c2cc(Cl)ccc2N)n1 | 93 to 95 °C
O=C(O)c1cc([N+](=O)[O-])cc([N+](=O)[O-])c1F | 204 to 206 °C
Cn1nnnc1-c1cccc(N)c1 | 147 to 149 °C
N#CCc1ccc2ccccc2n1 | 45 to 47 °C
Cc1nnc2ccc(C#N)cn12 | 201 to 203 °C
CS(=O)(=O)N1CCC(C(=O)O)CC1 | 159 to 161 °C

SMILES | melting point
Cn1cc(C(=O)NN)c2ccccc21 | 138 to 140 °C
COc1ccc(-n2c(CCl)nc3ccccc32)cc1 | 121 to 125 °C
O=c1[nH]cnc2sc3c(c12)CCCCC3 | 107 to 109 °C
C=CCN(CC=C)C(=O)c1ccc(N)cc1 | 104 to 106 °C
Cn1c(-c2ccccc2)c(C(=O)CCl)c2ccccc21 | 146 to 148 °C
Nc1ccc(CCC(=O)O)cn1 | 199 to 201 °C
Cc1cc(C)c(C#N)c(=S)[nH]1 | 255 to 257 °C
CNCCCc1n[nH]c(N)c1C#N | 179 to 181 °C
COc1c(Br)cc(Cl)cc1S(=O)(=O)Cl | 68 to 70 °C
CN(C)C(Cc1ccccc1)C(=O)O (stereo not drawn) | 225 to 227 °C
Cc1nnc(NCCC(C)C)c2ccccc12 | 129 to 131 °C
O=C(O)c1ccc(CS(=O)(=O)C(F)F)cc1 | 218 to 220 °C
COCCCOc1ccc(C(=O)O)cc1 | 112 to 114 °C
Sc1nncn1-c1ccccc1 | 172 to 174 °C
CC(NC(=O)c1ccc(Br)o1)C(=O)O (stereo not drawn) | 169 to 171 °C
Cc1cc(S(=O)(=O)Nc2ccccc2C(=O)O)ccc1F | 65 to 68 °C
Cn1ccc(C(=O)CCl)c1 | 49 to 51 °C
CCn1ncc2c(C(=O)O)cc(-c3ccccc3)nc21 | 236 to 238 °C
O=C(O)C(c1ccccc1F)N1CCOCC1 (stereo not drawn) | 189 to 191 °C
Nc1cccc(C(=O)CCC(=O)O)c1 | 126 to 128 °C
Nc1ccc2c(c1)oc1ccccc12 | 89 to 91 °C

Continued, values first:

melting point | SMILES
110 to 112 °C | CC(Oc1cccc(C#N)c1)C(=O)O (stereo not drawn)
179 to 181 °C | COc1ccc2[nH]cc(C(=O)O)c2c1
168 to 170 °C | CC(Oc1ccc(C=CC(=O)O)cc1F)c1ccccc1 (stereo not drawn)
39 to 41 °C | CCOC(=O)C(=O)NN
59 to 61 °C | COCCOc1ccc(C(F)(F)F)cc1NC(=O)C(C)Cl (stereo not drawn)
333 to 335 °C | Nc1ccc(-c2n[nH]c(=O)[nH]2)cc1
130 to 132 °C | CCOC(=O)C(=O)Cc1ccc2ccccc2n1
169 to 171 °C | Cc1c(C(=O)O)nnn1-c1cccc([N+](=O)[O-])c1
121 to 123 °C | CC(C)(C)n1cc(C#N)c(N)n1
241 to 243 °C | COc1cc(OC)cc(C(=O)Nc2ccc(O)c(C(=O)O)c2)c1
146 to 148 °C | CSc1nsc(N)n1
158 to 160 °C | Nc1nc(CN2CCN(c3ncccn3)CC2)cs1
181 to 183 °C | O=C(O)c1cnn(-c2nccs2)c1
127 to 129 °C | CCOC(=O)C(C)NC(=O)c1ccc(N)cc1 (stereo not drawn)
149 to 151 °C | Cc1cn2c(CO)c(C)nc2s1
51 to 53 °C | COC(=O)c1cccc(S(=O)(=O)Cl)c1
204 to 206 °C | CCOc1cc(C(=O)O)cc(Cl)c1O
49 to 51 °C | CCOC(=O)c1ccc(N2CCNCC2)nc1
64 to 66 °C | Cc1ncc(C=O)n1-c1ccccc1
220 to 222 °C | Cc1cccc2sc(NC(=O)OCC(F)(F)F)nc12
124 to 126 °C | O=C(Nc1cccc(-c2nnnn2C2CC2)c1)OCC(F)(F)F

melting point | SMILES
94 to 96 °C | CN(C)S(N)(=O)=O
279 to 281 °C | N#CCc1nc2scc(-c3ccccc3)c2c(=O)[nH]1
249 to 251 °C | Cc1cc(C(=O)O)nn1-c1cccc(C#N)c1
233 to 235 °C | CC(=O)N1CCc2cc(NC(=O)CCl)ccc21
62 to 64 °C | Clc1ccc(Br)c2ccccc12
65 to 67 °C | CC1NCCNC1=O (stereo not drawn)
107 to 109 °C | CCCc1onc(C)c1C(=O)O
119 to 121 °C | O=C1CNc2ccccc2N1
109 to 111 °C | NC(=O)C1CCOC1 (stereo not drawn)
223 to 225 °C | Cc1ccn2c(N)c(-c3cccs3)nc2c1
164 to 166 °C | CS(=O)(=O)Nc1ccc(S(=O)(=O)Cl)cc1F
144 to 146 °C | O=C(O)CCc1ncc(-c2ccc(F)cc2)o1
54 to 56 °C | CC(C(=O)O)c1ccc(Br)cc1 (stereo not drawn)
108 to 110 °C | CNC(=O)c1cccc(O)c1
179 to 181 °C | CNS(=O)(=O)c1cc(Br)cnc1N
152 to 154 °C | Cc1ncc(C(=O)O)c(Cl)c1Br
208 to 210 °C | O=Cc1c[nH]nc1-c1cccnc1
219 to 221 °C | O=C(O)c1nn(-c2cccc(F)c2)ccc1=O
50 to 52 °C | O=C(NCc1ccccn1)OCC(F)(F)F
205 to 210 °C | Cc1nn(-c2ccc(F)cc2)c2sc(C(=O)O)cc12
139 to 141 °C | Cc1scc(C(=O)O)c1C

melting point | SMILES
272 to 274 °C | O=c1[nH]cnc2ccc(I)cc12
105 to 107 °C | Ic1nnc(-c2ccccc2)s1
232 to 234 °C | CCc1nc2ccccc2n1CC(=O)O
75 to 77 °C | COc1cc(Br)cc(F)c1C#N
104 to 106 °C | c1cc2c[nH]nc2cn1
73 to 77 °C | Nc1cccc(S(=O)(=O)N2CCCCCC2)c1
319 to 321 °C | CC(N)=C(C#N)C(=O)O
67 to 69 °C | CNC(c1ccc(Cl)cc1)c1ncccn1 (stereo not drawn)
72 to 74 °C | O=[N+]([O-])c1ccc(S(=O)(=O)Cl)c(F)c1
142 to 144 °C | COc1ccc(NC(=O)CCl)cc1S(=O)(=O)N1CCCCC1
250 to 252 °C | Sc1ncc(-c2ccccc2)n1-c1ccccc1
77 to 79 °C | O=C(CO)N1CCOCC1
118 to 120 °C | CCC(C)C(=O)N1CCCC(C(=O)O)C1 (stereo not drawn)
195 to 197 °C | NC(=O)c1cccc(Oc2ccc(N)cn2)c1
182 to 184 °C | NC(=O)NCc1cccnc1
88 to 90 °C | O=C(C1Cc2ccccc2CN1)N1CCCC1 (stereo not drawn)
118 to 120 °C | Cc1ccc(N(C(=O)CCl)C2C=CS(=O)(=O)C2)cc1 (stereo not drawn)
75 to 77 °C | COc1ccc2ocnc2c1
100 to 102 °C | Cc1ccc(C)n1-c1nc(CC(=O)O)cs1
73 to 75 °C | O=Cc1cc(Br)c2c(c1)OCCCO2
161 to 163 °C | CC(C)c1c(C(=O)O)cnn1-c1cccc(Cl)c1

melting point | SMILES
129 to 131 °C | O=C(O)C(Oc1ccc(Br)cc1Br)c1ccccc1 (stereo not drawn)
210 to 212 °C | O=C(O)CSc1nnc(-c2ccccc2F)n1-c1ccccc1
239 to 241 °C | COc1ccc(-c2ncc(C(=O)O)s2)cc1
77 to 79 °C | c1cc2c(cn1)CCN2
269 to 271 °C | Sc1nnc(-c2cccs2)n1-c1ccccc1
179 to 181 °C | CC(C)c1ccc(NC(=S)NN)cc1
145 to 147 °C | Cc1ccc(O)c(N)n1
113 to 115 °C | O=C(O)c1noc(-c2cccc(F)c2F)n1
101 to 103 °C | CCS(=O)(=O)Nc1ccc(N)cc1C
123 to 125 °C | CC(c1ccc(Cl)cc1Cl)S(N)(=O)=O (stereo not drawn)
181 to 183 °C | Cc1c(C(=O)O)nnn1-c1ccc(F)cc1
182 to 184 °C | N#Cc1ccccc1Sc1ccc(C(=O)O)cc1
110 to 112 °C | Nc1ccccc1NC(=O)c1cccs1
87 to 89 °C | CNc1ncccc1C#N
86 to 88 °C | O=C(O)c1cccc(OCC2CCCO2)c1 (stereo not drawn)
64 to 66 °C | CN1CCN(CCc2ccc(N)cc2)CC1
66 to 68 °C | Cc1ccc(CN(C)C)cc1N
203 to 205 °C | COc1cc(O)ncc1Br
38 to 40 °C | CC(=O)CCCCCCC(=O)O
149 to 151 °C | CC(C)n1nccc1C(=O)O
